Assay results: the NIST ThermoML archive (doi:10.1021/acs.jced.8b00692)
Numbers after ± are expanded uncertainties.

Assay: xn = mol fraction of the nth substance listed
Conditions: 102 kPa, Liquid; for viscosity: Concentric cylinders viscometry; for speed of sound: Frequency=3 MHz, Single path-length method; for mass density: Vibrating tube method

CCCC1CCCCC1 [1-cyclohexylpropane] + CCCCCCCCCCCCCCCC
Conditions | mass density [kg/m3] | speed of sound [m/s] | viscosity [mPa·s]
293.15 K, x1 = 0.2001 | 775.57 ± 0.81 | 1349.9 ± 0.6 | 2.9 ± 0.02
293.15 K, x1 = 0.4008 | 778.35 ± 0.81 | 1341.6 ± 0.6 | 2.35 ± 0.02
293.15 K, x1 = 0.5001 | 779.98 ± 0.81 | 1336.9 ± 0.6 | 2.11 ± 0.01
293.15 K, x1 = 0.6009 | 781.97 ± 0.81 | 1331.7 ± 0.6 | 1.85 ± 0.01
293.15 K, x1 = 0.8301 | 787.65 ± 0.81 | 1318.8 ± 0.6 | 1.34 ± 0.01
293.15 K, x1 = 1 | 793.54 ± 0.81 | 1307.8 ± 0.6 | 0.996 ± 0.012
303.15 K, x1 = 0.2001 | 768.58 ± 0.81 | 1312.1 ± 0.6 | 2.34 ± 0.02
303.15 K, x1 = 0.4008 | 771.27 ± 0.81 | 1303.8 ± 0.6 | 1.94 ± 0.01
303.15 K, x1 = 0.5001 | 772.84 ± 0.81 | 1298.4 ± 0.6 | 1.74 ± 0.01
303.15 K, x1 = 0.6009 | 774.74 ± 0.81 | 1293.3 ± 0.6 | 1.55 ± 0.01
303.15 K, x1 = 0.8301 | 780.16 ± 0.81 | 1279.2 ± 0.6 | 1.14 ± 0.01
303.15 K, x1 = 1 | 785.73 ± 0.81 | 1266.2 ± 0.6 | 0.86 ± 0.012
313.15 K, x1 = 0.2001 | 761.59 ± 0.81 | 1275.2 ± 0.6 | 1.93 ± 0.01
313.15 K, x1 = 0.4008 | 764.18 ± 0.81 | 1266.6 ± 0.6 | 1.61 ± 0.01
313.15 K, x1 = 0.5001 | 765.69 ± 0.81 | 1260.8 ± 0.6 | 1.46 ± 0.01
313.15 K, x1 = 0.6009 | 767.5 ± 0.81 | 1255.6 ± 0.6 | 1.31 ± 0.01
313.15 K, x1 = 0.8301 | 772.64 ± 0.81 | 1240.3 ± 0.6 | 0.975 ± 0.012
313.15 K, x1 = 1 | 777.9 ± 0.81 | 1225.6 ± 0.6 | 0.75 ± 0.012
323.15 K, x1 = 0.2001 | 754.61 ± 0.81 | 1239 ± 0.6 | 1.61 ± 0.01
323.15 K, x1 = 0.4008 | 757.08 ± 0.81 | 1230 ± 0.6 | 1.37 ± 0.01
323.15 K, x1 = 0.5001 | 758.53 ± 0.81 | 1224 ± 0.6 | 1.25 ± 0.01
323.15 K, x1 = 0.6009 | 760.24 ± 0.81 | 1218.5 ± 0.6 | 1.13 ± 0.01
323.15 K, x1 = 0.8301 | 765.09 ± 0.81 | 1202 ± 0.6 | 0.858 ± 0.012
323.15 K, x1 = 1 | 770.04 ± 0.81 | 1185.9 ± 0.6 | 0.663 ± 0.011
333.15 K, x1 = 0.2001 | 747.61 ± 0.81 | 1203.8 ± 0.6 | 1.37 ± 0.01
333.15 K, x1 = 0.4008 | 749.96 ± 0.81 | 1194.3 ± 0.6 | 1.18 ± 0.01
333.15 K, x1 = 0.5001 | 751.33 ± 0.81 | 1188 ± 0.6 | 1.07 ± 0.01
333.15 K, x1 = 0.6009 | 752.95 ± 0.81 | 1182.1 ± 0.6 | 0.97 ± 0.012
333.15 K, x1 = 0.8301 | 757.51 ± 0.81 | 1164.5 ± 0.6 | 0.747 ± 0.012
333.15 K, x1 = 1 | 762.12 ± 0.81 | 1147.3 ± 0.6 | 0.584 ± 0.011
343.15 K, x1 = 0.2001 | 740.6 ± 0.8 | – | 1.19 ± 0.01
343.15 K, x1 = 0.4008 | 742.9 ± 0.8 | – | 1.03 ± 0.01
343.15 K, x1 = 0.5001 | 744.1 ± 0.8 | – | 0.946 ± 0.012
343.15 K, x1 = 0.6009 | 745.6 ± 0.8 | – | 0.863 ± 0.012
343.15 K, x1 = 0.8301 | 749.8 ± 0.8 | – | 0.673 ± 0.011
343.15 K, x1 = 1 | 754.2 ± 0.8 | – | 0.544 ± 0.011
353.15 K, x1 = 0.2001 | 733.6 ± 0.8 | – | 1.02 ± 0.01
353.15 K, x1 = 0.4008 | 735.7 ± 0.8 | – | 0.905 ± 0.012
353.15 K, x1 = 0.5001 | 736.9 ± 0.8 | – | 0.834 ± 0.012
353.15 K, x1 = 0.6009 | 738.3 ± 0.8 | – | 0.764 ± 0.012
353.15 K, x1 = 0.8301 | 742.2 ± 0.8 | – | 0.594 ± 0.011
353.15 K, x1 = 1 | 746.1 ± 0.8 | – | 0.477 ± 0.011
363.15 K, x1 = 0.2001 | 726.5 ± 0.8 | – | 0.918 ± 0.012
363.15 K, x1 = 0.4008 | 728.5 ± 0.8 | – | 0.805 ± 0.012
363.15 K, x1 = 0.5001 | 729.5 ± 0.8 | – | 0.746 ± 0.012
363.15 K, x1 = 0.6009 | 730.8 ± 0.8 | – | 0.685 ± 0.011
363.15 K, x1 = 0.8301 | 734.6 ± 0.8 | – | 0.503 ± 0.021
363.15 K, x1 = 1 | 738 ± 0.8 | – | 0.452 ± 0.011

CCCCCCCCCCC1CCCCC1 [decylcyclohexane] + CCCCCCCCCCCCCCCC
Conditions | mass density [kg/m3] | speed of sound [m/s] | viscosity [mPa·s]
293.15 K, x1 = 0.2 | 781.98 ± 0.81 | 1366.2 ± 0.7 | 3.73 ± 0.03
293.15 K, x1 = 0.4 | 790.75 ± 0.81 | 1375.8 ± 0.7 | 4.03 ± 0.02
293.15 K, x1 = 0.4999 | 795.26 ± 0.81 | 1380.7 ± 0.7 | 4.19 ± 0.02
293.15 K, x1 = 0.6008 | 799.82 ± 0.81 | 1385.6 ± 0.8 | 4.36 ± 0.03
293.15 K, x1 = 0.7237 | 805.48 ± 0.81 | 1392 ± 0.8 | 4.63 ± 0.02
293.15 K, x1 = 1 | 818.55 ± 0.81 | 1406.7 ± 0.9 | 5.32 ± 0.03
303.15 K, x1 = 0.2 | 775.08 ± 0.81 | 1329 ± 0.7 | 2.95 ± 0.02
303.15 K, x1 = 0.4 | 783.89 ± 0.81 | 1338.4 ± 0.7 | 3.16 ± 0.02
303.15 K, x1 = 0.4999 | 788.42 ± 0.81 | 1343.3 ± 0.7 | 3.29 ± 0.02
303.15 K, x1 = 0.6008 | 792.99 ± 0.81 | 1348.3 ± 0.7 | 3.41 ± 0.02
303.15 K, x1 = 0.7237 | 798.67 ± 0.81 | 1354.7 ± 0.8 | 3.6 ± 0.02
303.15 K, x1 = 1 | 811.78 ± 0.81 | 1369.4 ± 0.9 | 4.09 ± 0.02
313.15 K, x1 = 0.2 | 768.19 ± 0.81 | 1292.6 ± 0.7 | 2.39 ± 0.02
313.15 K, x1 = 0.4 | 777.04 ± 0.81 | 1301.9 ± 0.7 | 2.54 ± 0.02
313.15 K, x1 = 0.4999 | 781.59 ± 0.81 | 1306.8 ± 0.7 | 2.64 ± 0.02
313.15 K, x1 = 0.6008 | 786.18 ± 0.81 | 1311.8 ± 0.7 | 2.73 ± 0.02
313.15 K, x1 = 0.7237 | 791.88 ± 0.81 | 1318.3 ± 0.8 | 2.87 ± 0.02
313.15 K, x1 = 1 | 805.02 ± 0.81 | 1333 ± 0.9 | 3.23 ± 0.02
323.15 K, x1 = 0.2 | 761.3 ± 0.81 | 1256.8 ± 0.7 | 1.97 ± 0.01
323.15 K, x1 = 0.4 | 770.2 ± 0.81 | 1266.2 ± 0.7 | 2.09 ± 0.02
323.15 K, x1 = 0.4999 | 774.76 ± 0.81 | 1271.1 ± 0.7 | 2.18 ± 0.02
323.15 K, x1 = 0.6008 | 779.37 ± 0.81 | 1276.2 ± 0.7 | 2.24 ± 0.02
323.15 K, x1 = 0.7237 | 785.08 ± 0.81 | 1282.7 ± 0.8 | 2.34 ± 0.02
323.15 K, x1 = 1 | 798.27 ± 0.81 | 1297.5 ± 0.9 | 2.62 ± 0.02
333.15 K, x1 = 0.2 | 754.42 ± 0.81 | 1221.9 ± 0.7 | 1.65 ± 0.01
333.15 K, x1 = 0.4 | 763.35 ± 0.81 | 1231.6 ± 0.7 | 1.75 ± 0.01
333.15 K, x1 = 0.4999 | 767.92 ± 0.81 | 1236.3 ± 0.7 | 1.81 ± 0.01
333.15 K, x1 = 0.6008 | 772.55 ± 0.81 | 1241.5 ± 0.7 | 1.87 ± 0.02
333.15 K, x1 = 0.7237 | 778.28 ± 0.81 | 1248.2 ± 0.8 | 1.95 ± 0.02
333.15 K, x1 = 1 | 791.5 ± 0.81 | 1262.9 ± 0.9 | 2.16 ± 0.02
343.15 K, x1 = 0.2 | 747.5 ± 0.8 | – | 1.42 ± 0.01
343.15 K, x1 = 0.4 | 756.5 ± 0.8 | – | 1.48 ± 0.01
343.15 K, x1 = 0.4999 | 761.3 ± 0.8 | – | 1.54 ± 0.01
343.15 K, x1 = 0.6008 | 765.8 ± 0.8 | – | 1.58 ± 0.01
343.15 K, x1 = 0.7237 | 771.6 ± 0.8 | – | 1.64 ± 0.01
343.15 K, x1 = 1 | 784.8 ± 0.8 | – | 1.82 ± 0.02
353.15 K, x1 = 0.2 | 740.7 ± 0.8 | – | 1.21 ± 0.01
353.15 K, x1 = 0.4 | 749.7 ± 0.8 | – | 1.28 ± 0.01
353.15 K, x1 = 0.4999 | 754.4 ± 0.8 | – | 1.32 ± 0.01
353.15 K, x1 = 0.6008 | 759 ± 0.8 | – | 1.36 ± 0.01
353.15 K, x1 = 0.7237 | 764.8 ± 0.8 | – | 1.41 ± 0.01
353.15 K, x1 = 1 | 778 ± 0.8 | – | 1.55 ± 0.01
363.15 K, x1 = 0.2 | 733.7 ± 0.8 | – | 1.08 ± 0.01
363.15 K, x1 = 0.4 | 742.8 ± 0.8 | – | 1.1 ± 0.01
363.15 K, x1 = 0.4999 | 747.6 ± 0.8 | – | 1.17 ± 0.01
363.15 K, x1 = 0.6008 | 752.1 ± 0.8 | – | 1.18 ± 0.01
363.15 K, x1 = 0.7237 | 758 ± 0.8 | – | 1.22 ± 0.01
363.15 K, x1 = 1 | 771.2 ± 0.8 | – | 1.34 ± 0.01
373.15 K, x1 = 0.2 | 726.8 ± 0.8 | – | 0.926 ± 0.012
373.15 K, x1 = 0.4 | 735.9 ± 0.8 | – | 0.979 ± 0.012
373.15 K, x1 = 0.4999 | 740.7 ± 0.8 | – | 1.01 ± 0.01
373.15 K, x1 = 0.6008 | 745.2 ± 0.8 | – | 1.04 ± 0.01
373.15 K, x1 = 0.7237 | 751.1 ± 0.8 | – | 1.07 ± 0.01
373.15 K, x1 = 1 | 764.4 ± 0.8 | – | 1.17 ± 0.01
